Laboratory results taken from patent US20250179103A1, “6-OXODECAHYDROPYRROLO[1,2-A][1,5]DIAZOCINE AND 6-OXODECAHYDRO-4H-PYRROLO[2,1-D][1,5]THIAZOCINE DERIVATIVES AS STAT3 AND STAT6 MODULATORS FOR THE TREATMENT OF CANCER AND INFLAMMATORY CONDITIONS” (Recludix Pharma, Inc., priority 2022, published 2025).

Tests used:
[1] = biological target: T1, Recombinant STAT3 protein (STAT3(G127-I722)) (Homo sapiens, UniProt P40763); experiment: STAT3 Fluorescence Polarization (FP) Assay; assay type: binding; details: STAT3(G127-I722) 25 nM, probe 5-FAM-GpYLPQTV-NH2 2 nM, 45-minute incubation
T1 construct: Recombinant STAT3 protein (STAT3(G127-I722))
T1 sequence (P40763 127-722): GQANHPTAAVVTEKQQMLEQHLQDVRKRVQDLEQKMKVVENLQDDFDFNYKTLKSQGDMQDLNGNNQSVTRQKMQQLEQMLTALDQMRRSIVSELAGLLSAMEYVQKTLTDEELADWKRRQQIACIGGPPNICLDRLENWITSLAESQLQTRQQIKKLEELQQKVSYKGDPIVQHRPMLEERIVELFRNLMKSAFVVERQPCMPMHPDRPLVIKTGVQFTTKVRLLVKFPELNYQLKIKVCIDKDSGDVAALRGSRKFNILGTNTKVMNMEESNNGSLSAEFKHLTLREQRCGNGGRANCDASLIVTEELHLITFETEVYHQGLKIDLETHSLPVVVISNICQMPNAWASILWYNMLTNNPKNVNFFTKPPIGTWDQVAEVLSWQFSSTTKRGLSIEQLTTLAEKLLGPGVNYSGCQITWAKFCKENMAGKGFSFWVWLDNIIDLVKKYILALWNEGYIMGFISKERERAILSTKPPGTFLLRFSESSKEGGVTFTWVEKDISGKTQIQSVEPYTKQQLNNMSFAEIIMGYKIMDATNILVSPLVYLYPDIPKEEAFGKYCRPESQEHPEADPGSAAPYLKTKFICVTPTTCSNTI
Method in brief: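 STAT3(G127-I722), 25 nM, was mixed with 2 nM 5-FAM-GpYLPQTV-NH2 probe in HEPES pH 7.4 buffer with 1% DMSO and serially diluted compound. FP (mP) was read after 45 min at room temperature. IC50 came from nonlinear regression.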

[2] = biological target: T2, Recombinant STAT6 protein (STAT6(W123-T658)) (Homo sapiens, UniProt P42226); experiment: STAT6 Fluorescence Polarization (FP) Assay; assay type: binding; details: STAT6(W123-T658) 250 nM, probe 5-FAM-ApYKPFQDLI-NH2 2 nM, 45-minute incubation
T2 construct: Recombinant STAT6 protein (STAT6(W123-T658))
T2 sequence (P42226 123-658): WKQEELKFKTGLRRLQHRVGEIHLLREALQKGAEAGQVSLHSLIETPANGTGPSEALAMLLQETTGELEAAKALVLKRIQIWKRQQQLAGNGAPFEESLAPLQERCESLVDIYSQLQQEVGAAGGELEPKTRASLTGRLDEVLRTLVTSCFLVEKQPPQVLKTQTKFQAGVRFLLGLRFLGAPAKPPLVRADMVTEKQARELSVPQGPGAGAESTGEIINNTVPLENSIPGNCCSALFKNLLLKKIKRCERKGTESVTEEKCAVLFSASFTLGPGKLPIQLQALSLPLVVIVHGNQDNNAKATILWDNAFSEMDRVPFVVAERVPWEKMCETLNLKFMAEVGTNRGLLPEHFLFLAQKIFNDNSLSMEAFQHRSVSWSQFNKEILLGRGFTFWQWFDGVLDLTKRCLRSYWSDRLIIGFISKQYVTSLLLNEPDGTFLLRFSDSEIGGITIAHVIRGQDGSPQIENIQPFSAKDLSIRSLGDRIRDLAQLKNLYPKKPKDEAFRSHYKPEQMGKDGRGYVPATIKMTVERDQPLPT
Method in brief: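 Displacement of a fluorescent phosphotyrosine peptide (5-FAM-ApYKPFQDLI-NH2, 2 nM) from STAT6(W123-T658) (250 nM), 1% DMSO, pH 7.4 HEPES buffer. After 45 min at room temperature, polarization (mP) was plotted versus log compound concentration and fitted by nonlinear regression to give IC50.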

Row | SMILES | IC50 [1] [nM] | IC50 [2] [nM]
1 | CCC(C)(C)c1ccc(N(C)C(=O)[C@@H]2CC[C@@H]3CCN(C(C)=O)C[C@H](NC(=O)c4cc5cc(C(F)(F)P(=O)(O)O)ccc5s4)C(=O)N32)cc1 [Compound 159, ((2-(((5S,8S,10aR)-3-acetyl-8-(methyl(4-(tert-pentyl)phenyl)carbamoyl)-6-oxodecahydropyrrolo[1,2-a][1,5]diazocin-5-yl)carbamoyl)benzo[b]thiophen-5-yl)difluoromethyl)phosphonic acid] | 1000 to 10000 | 300 to 3000
2 | CC(=O)N1CC[C@H]2CC[C@@H](C(=O)N(C)c3ccc(C(C)(C)C)c(Cl)c3)N2C(=O)[C@@H](NC(=O)c2cc3cc(C(F)(F)P(=O)(O)O)ccc3s2)C1 [Compound 160, ((2-(((5S,8S,10aR)-3-acetyl-8-((4-(tert-butyl)-3-chlorophenyl)(methyl)carbamoyl)-6-oxodecahydropyrrolo[1,2-a][1,5]diazocin-5-yl)carbamoyl)benzo[b]thiophen-5-yl)difluoromethyl)phosphonic acid] | 1000 to 10000 | 300 to 3000
3 | CC(=O)N1CC[C@H]2CC[C@@H](C(=O)Nc3ccc4c(cnn4C)c3)N2C(=O)[C@@H](NC(=O)c2cc3cc(C(F)(F)P(=O)(O)O)ccc3s2)C1 [Compound 161, ((2-(((5S,8S,10aR)-3-acetyl-8-((1-methyl-1H-indazol-5-yl)carbamoyl)-6-oxodecahydropyrrolo[1,2-a][1,5]diazocin-5-yl)carbamoyl)benzo[b]thiophen-5-yl)difluoromethyl)phosphonic acid] | 1000 to 10000 | 300 to 3000
4 | CC(=O)N1CC[C@H]2CC[C@@H](C(=O)N3CCC[C@H]3c3ccccc3)N2C(=O)[C@@H](NC(=O)c2cc3cc(C(F)(F)P(=O)(O)O)ccc3[nH]2)C1 [Compound 162, ((2-(((5S,8S,10aR)-3-acetyl-6-oxo-8-((S)-2-phenylpyrrolidine-1-carbonyl)decahydropyrrolo[1,2-a][1,5]diazocin-5-yl)carbamoyl)-1H-indol-5-yl)difluoromethyl)phosphonic acid] | 1000 to 10000 | 300 to 3000
5 | CC(=O)N1CC[C@H]2CC[C@@H](C(=O)N3CCC[C@H]3Cc3ccccc3)N2C(=O)[C@@H](NC(=O)c2cc3cc(C(F)(F)P(=O)(O)O)ccc3[nH]2)C1 [Compound 163, ((2-(((5S,8S,10aR)-3-acetyl-8-((S)-2-benzylpyrrolidine-1-carbonyl)-6-oxodecahydropyrrolo[1,2-a][1,5]diazocin-5-yl)carbamoyl)-1H-indol-5-yl)difluoromethyl)phosphonic acid] | 1000 to 10000 | 300 to 3000
6 | COc1ccccc1N(C)C(=O)[C@@H]1CC[C@@H]2CCN(C(C)=O)C[C@H](NC(=O)c3cc4cc(C(F)(F)P(=O)(O)O)ccc4[nH]3)C(=O)N21 [Compound 164, ((2-(((5S,8S,10aR)-3-acetyl-8-((2-methoxyphenyl)(methyl)carbamoyl)-6-oxodecahydropyrrolo[1,2-a][1,5]diazocin-5-yl)carbamoyl)-1H-indol-5-yl)difluoromethyl)phosphonic acid] | 1000 to 10000 | 300 to 3000
7 | COc1cccc(N(C)C(=O)[C@@H]2CC[C@@H]3CCN(C(C)=O)C[C@H](NC(=O)c4cc5cc(C(F)(F)P(=O)(O)O)ccc5[nH]4)C(=O)N32)c1 [Compound 165, ((2-(((5S,8S,10aR)-3-acetyl-8-((3-methoxyphenyl)(methyl)carbamoyl)-6-oxodecahydropyrrolo[1,2-a][1,5]diazocin-5-yl)carbamoyl)-1H-indol-5-yl)difluoromethyl)phosphonic acid] | 1000 to 10000 | 300 to 3000
8 | COc1ccc(N(C)C(=O)[C@@H]2CC[C@@H]3CCN(C(C)=O)C[C@H](NC(=O)c4cc5cc(C(F)(F)P(=O)(O)O)ccc5[nH]4)C(=O)N32)cc1 [Compound 166, ((2-(((5S,8S,10aR)-3-acetyl-8-((4-methoxyphenyl)(methyl)carbamoyl)-6-oxodecahydropyrrolo[1,2-a][1,5]diazocin-5-yl)carbamoyl)-1H-indol-5-yl)difluoromethyl)phosphonic acid] | 1000 to 10000 | 300 to 3000
9 | CC(=O)N1CC[C@H]2CC[C@@H](C(=O)N(C)c3cccc(C#N)c3)N2C(=O)[C@@H](NC(=O)c2cc3cc(C(F)(F)P(=O)(O)O)ccc3[nH]2)C1 [Compound 167, ((2-(((5S,8S,10aR)-3-acetyl-8-((3-cyanophenyl)(methyl)carbamoyl)-6-oxodecahydropyrrolo[1,2-a][1,5]diazocin-5-yl)carbamoyl)-1H-indol-5-yl)difluoromethyl)phosphonic acid] | 1000 to 10000 | 300 to 3000
10 | CC(=O)N1CC[C@H]2CC[C@@H](C(=O)N(C)c3ccc(C#N)cc3)N2C(=O)[C@@H](NC(=O)c2cc3cc(C(F)(F)P(=O)(O)O)ccc3[nH]2)C1 [Compound 168, ((2-(((5S,8S,10aR)-3-acetyl-8-((4-cyanophenyl)(methyl)carbamoyl)-6-oxodecahydropyrrolo[1,2-a][1,5]diazocin-5-yl)carbamoyl)-1H-indol-5-yl)difluoromethyl)phosphonic acid] | 1000 to 10000 | 300 to 3000
11 | CCN(C(=O)[C@@H]1CC[C@@H]2CCN(C(C)=O)C[C@H](NC(=O)c3cc4cc(C(F)(F)P(=O)(O)O)ccc4[nH]3)C(=O)N21)c1ccccc1 [Compound 169, ((2-(((5S,8S,10aR)-3-acetyl-8-(ethyl(phenyl)carbamoyl)-6-oxodecahydropyrrolo[1,2-a][1,5]diazocin-5-yl)carbamoyl)-1H-indol-5-yl)difluoromethyl)phosphonic acid] | 1000 to 10000 | 300 to 3000
12 | CC(=O)N1CC(N(C)C(=O)[C@@H]2CC[C@@H]3CCN(C(C)=O)C[C@H](NC(=O)c4cc5cc(C(F)(F)P(=O)(O)O)ccc5[nH]4)C(=O)N32)C1 [Compound 170, ((2-(((5S,8S,10aR)-3-acetyl-8-((1-acetylazetidin-3-yl)(methyl)carbamoyl)-6-oxodecahydropyrrolo[1,2-a][1,5]diazocin-5-yl)carbamoyl)-1H-indol-5-yl)difluoromethyl)phosphonic acid] | 1000 to 10000 | 300 to 3000
13 | CC(=O)N1CC(N(C)C(=O)[C@@H]2CC[C@@H]3CCN(C(C)=O)C[C@H](NC(=O)c4cc5cc(C(F)(F)P(=O)(O)O)ccc5s4)C(=O)N32)C1 [Compound 171, ((2-(((5S,8S,10aR)-3-acetyl-8-((1-acetylazetidin-3-yl)(methyl)carbamoyl)-6-oxodecahydropyrrolo[1,2-a][1,5]diazocin-5-yl)carbamoyl)benzo[b]thiophen-5-yl)difluoromethyl)phosphonic acid] | 1000 to 10000 | 300 to 3000
14 | CC(=O)N1CC[C@H]2CC[C@@H](C(=O)Nc3ccc4ncncc4c3)N2C(=O)[C@@H](NC(=O)c2cc3cc(C(F)(F)P(=O)(O)O)ccc3s2)C1 [Compound 172, ((2-(((5S,8S,10aR)-3-acetyl-6-oxo-8-(quinazolin-6-ylcarbamoyl)decahydropyrrolo[1,2-a][1,5]diazocin-5-yl)carbamoyl)benzo[b]thiophen-5-yl)difluoromethyl)phosphonic acid] | 1000 to 10000 | 300 to 3000
15 | CC(=O)N1CC[C@H]2CC[C@@H](C(=O)Nc3ccc4ccccc4c3)N2C(=O)[C@@H](NC(=O)c2cc3cc(C(F)(F)P(=O)(O)O)ccc3s2)C1 [Compound 173, ((2-(((5S,8S,10aR)-3-acetyl-8-(naphthalen-2-ylcarbamoyl)-6-oxodecahydropyrrolo[1,2-a][1,5]diazocin-5-yl)carbamoyl)benzo[b]thiophen-5-yl)difluoromethyl)phosphonic acid] | 100 to 1000 | 300 to 3000
16 | CC(=O)N1CC[C@H]2CC[C@@H](C(=O)Nc3ccc4nnccc4c3)N2C(=O)[C@@H](NC(=O)c2cc3cc(C(F)(F)P(=O)(O)O)ccc3s2)C1 [Compound 174, ((2-(((5S,8S,10aR)-3-acetyl-8-(cinnolin-6-ylcarbamoyl)-6-oxodecahydropyrrolo[1,2-a][1,5]diazocin-5-yl)carbamoyl)benzo[b]thiophen-5-yl)difluoromethyl)phosphonic acid] | 100 to 1000 | ≤ 300
17 | CC(=O)N1CC[C@H]2CC[C@@H](C(=O)Nc3ccc4[nH]ncc4c3)N2C(=O)[C@@H](NC(=O)c2cc3cc(C(F)(F)P(=O)(O)O)ccc3s2)C1 [Compound 175, ((2-(((5S,8S,10aR)-8-((1H-indazol-5-yl)carbamoyl)-3-acetyl-6-oxodecahydropyrrolo[1,2-a][1,5]diazocin-5-yl)carbamoyl)benzo[b]thiophen-5-yl)difluoromethyl)phosphonic acid] | 100 to 1000 | 300 to 3000
